{"source": "ChEMBL document CHEMBL4145615", "about": "“Indolyl Azaspiroketal Mannich Bases Are Potent Antimycobacterial Agents with Selective Membrane Permeabilizing Effects and in Vivo Activity” (J Med Chem, 2018)"}
{"tested_on": "Mycobacterium tuberculosis variant bovis BCG", "test": "Antimycobacterial activity against Mycobacterium bovis BCG ATCC 35734 after 5 days by broth dilution method", "format": "functional", "settings": "ATCC 35734, 120 h", "units": {"MIC50": "µM", "MIC90": "µM"}}
{"smiles": "CCCCCCCCn1ccc2cccc(OCCCN3CCCCC3)c21", "MIC50": 5, "MIC90": 13}
{"smiles": "CCCCCCCCn1cc(CN2CCC3(CC2)OCCCO3)c2ccc(OC(C)C)cc21", "MIC50": 0.6, "MIC90": 1.6}
{"smiles": "CCCCCCCCn1ccc2c(OCCCN3CCCC3)cccc21", "MIC50": 18, "MIC90": 36}
{"smiles": "COc1ccc2c(CN3CCC4(CC3)OCCCO4)cn(CCCOc3ccccc3)c2c1", "MIC50": 1.3, "MIC90": 3.1}
{"smiles": "CCCCCCCCn1cc(CN2CCC3(CC2)OCCO3)c2ccc(C#N)cc21", "MIC50": 2.5, "MIC90": 5}
{"smiles": "COc1ccc2c(CN3CCC4(CC3)OCCCO4)cn(C/C=C/c3ccccc3)c2c1", "MIC50": 4.8, "MIC90": 9}
{"smiles": "COc1ccc2c(CN3CCC4(CC3)OCCO4)cn(CCCOCc3ccccc3)c2c1", "MIC50": 16, "MIC90": 40}
{"smiles": "CCCCCCCCn1cc(CN2CC(c3ccccc3)C2)c2ccc(OC)cc21", "MIC50": 2, "MIC90": 4}
{"smiles": "CCCCCCCCn1cc(CN2CCC3(CC2)OCCCO3)c2ccc(OCc3ccccc3)cc21", "MIC50": 2.2, "MIC90": 3.1}
{"smiles": "COc1ccc2c(CN3CCC4(CC3)OCCCO4)cn(CCCOc3ccc(C)c(C)c3)c2c1", "MIC50": 1.7, "MIC90": 2.7}
{"smiles": "COc1ccc2c(CN3CCC4(CC3)OCCO4)cn(CCCOc3ccc(F)cc3)c2c1", "MIC50": 5, "MIC90": 11}
{"smiles": "CCCCCCCCn1cc(CN2CC3COCC(C2)O3)c2ccc(OC)cc21", "MIC50": 17, "MIC90": 30}
{"smiles": "CCCCCCCCn1cc(CN2CCC3(CCO3)CC2)c2ccc(OC)cc21", "MIC50": 2, "MIC90": 4}
{"smiles": "CCCCCCCCn1cc(CN2CCCCC2)c2ccc(C#N)cc21", "MIC50": 2, "MIC90": 6}
{"smiles": "CCCCCCCCn1cc(CN2CCC3(CC2)OCCO3)c2ccc(OCc3ccccc3)cc21", "MIC50": 4, "MIC90": 5.5}
{"smiles": "CCCCCCCCn1cc(CN2CC(n3cccn3)C2)c2ccc(OC)cc21", "MIC50": 6, "MIC90": 15}
{"smiles": "CCCCCCCCn1cc(CN2CCCC(=O)CC2)c2ccc(OC)cc21", "MIC50": 17, "MIC90": 42}
{"smiles": "CCCCCCCCn1cc(CN2[C@H]3CCC[C@@H]2CCC3)c2ccc(OC)cc21", "MIC50": 3.8, "MIC90": 7.6}
{"smiles": "COc1ccc2c(CN3CCCCC3)cn(CCCOCc3ccccc3)c2c1", "MIC50": 46, "MIC90": "> 50"}
{"smiles": "COc1ccc2c(CN3CCC4(CC3)OCCCO4)cn(CCCCc3ccccc3)c2c1", "MIC50": 1.6, "MIC90": 3.1}
{"smiles": "CCCCCCCCn1cc(CN2CCCC3(CC2)OCCS3)c2ccc(OC)cc21", "note": "(stereo unspecified)", "MIC50": 0.7, "MIC90": 1.2}
{"smiles": "CCCCCCCCn1cc(CN2CCC3(CC2)OCCCO3)c2ccc(OCCC)cc21", "MIC50": 0.7, "MIC90": 1.2}
{"smiles": "COc1ccc2c(CN3CCC4(CC3)OCCO4)cn(CCCOc3ccccc3)c2c1", "MIC50": 3, "MIC90": 10}
{"smiles": "COc1ccc2c(CN3CCCCC3)cn(CCCc3ccccc3)c2c1", "MIC50": 36, "MIC90": "> 50"}
{"smiles": "COc1ccc2c(CN3CCC4(CC3)OCCO4)cn(CCCc3ccccc3)c2c1", "MIC50": 6, "MIC90": 18}
{"smiles": "COc1ccc2c(CN3CCC4(CC3)OCCO4)cn(C/C=C/c3ccccc3)c2c1", "MIC50": 15, "MIC90": 31}
{"smiles": "COc1ccc(OCCCn2cc(CN3CCC4(CC3)OCCO4)c3ccc(OC)cc32)cc1", "MIC50": 6, "MIC90": 13}
{"smiles": "COc1ccc2c(CN3CCC4(CC3)OCCCO4)cn(CCCOCc3ccccc3)c2c1", "MIC50": 2, "MIC90": 6}
{"smiles": "COc1ccc2c(CN3CCC4(CC3)OCCO4)cn(CCCOc3ccc(C)c(C)c3)c2c1", "MIC50": 4.6, "MIC90": 11}
{"smiles": "CCCCCCCCn1ccc2cc(OCCCN3CCC4(CC3)OCCCO4)ccc21", "MIC50": 14, "MIC90": 31}
{"smiles": "CCCCCCCCn1cc(CNCC2CC3CC3C2)c2ccc(OC)cc21", "note": "(stereo unspecified)", "MIC50": 2, "MIC90": 4}
{"smiles": "CCCCCCCCn1cc(CN2CCC3(CCN(Cc4ccccc4)CC3)CC2)c2ccc(OC)cc21", "MIC50": 2.3, "MIC90": 4.4}
{"smiles": "COc1ccc2c(CN3CCCCC3)cn(C/C=C/c3ccccc3)c2c1", "MIC50": 31, "MIC90": 49}
{"smiles": "COc1ccc2c(CN3CCCCC3)cn(CCCOc3ccccc3)c2c1", "MIC50": 30, "MIC90": 50}
{"smiles": "CCCCCCCCn1cc(CN2CCCCC2)c2ccc([N+](=O)[O-])cc21", "MIC50": 4, "MIC90": 5}
{"smiles": "CCCCCCCCn1ccc2ccc(OCCCN3CCCCC3)cc21", "MIC50": 13, "MIC90": 25}
{"smiles": "CCCCCCCCn1cc(CN2CCC(=O)CC2)c2ccc(OC)cc21", "MIC50": 17, "MIC90": 24}
{"smiles": "CCCCCCCCn1cc(CN2CCC3(CC2)OCCO3)c2ccc(OC(C)C)cc21", "MIC50": 3, "MIC90": 6}
{"smiles": "CCCCCCCCn1cc(CN2CCC3(CC2)OC[C@H](C)O3)c2ccc(OC)cc21", "MIC50": 0.5, "MIC90": 0.9}
{"smiles": "CCCCCCCCn1cc(CNC2CCC(=O)CC2)c2ccc(OC)cc21", "MIC50": 15, "MIC90": 24}
{"smiles": "CCCCCCCCn1ccc2ccc(OCCCN3CCC4(CC3)OC[C@H](C)O4)cc21", "MIC50": 11, "MIC90": 25}
{"smiles": "CCCCCCCCn1cc(CN2CCC3(CC2)OCCCO3)c2cccc([N+](=O)[O-])c21", "MIC50": 1.3, "MIC90": 3.1}
{"smiles": "CCCCCCCCn1cc(CNCC2CCC3CC3C2)c2ccc(OC)cc21", "note": "(stereo unspecified)", "MIC50": 1.6, "MIC90": 2.3}
